The source of these data is patent US10160747B2, “Compounds and methods for kinase modulation, and indications therefor” (Plexxikon Inc., priority 2016, dated 2018).

Molecules are shown by their SMILES.

One test addresses T1, c-KIT (Homo sapiens, UniProt P10721).
T1 construct: purchased Millipore 14-559K
Nature of the test: c-KIT recombinant enzyme kinase assay (AlphaScreen). In kind it is biochemical. The note with it: 100 ATP, 8 pt. The essentials:
(§1)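 Recombinant kinase phosphorylates 30 nM biotinylated poly(Glu4-Tyr) peptide; ATP is 10 μM for FLT3-ITD and FLT3-D835Y, 100 μM for c-KIT. Phosphotyrosine detected by AlphaScreen (streptavidin donor, PY20 acceptor beads, 10 μg/mL), 580 nm signal after 680 nm excitation; IC50 from signal decrease.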
On the technique in general: Alpha assays give light when donor and acceptor beads are brought close together.

A further test addresses T2, FLT3-D835Y (Homo sapiens, UniProt P36888, D835Y).
T2 construct: purchased Invitrogen PV3967
T2 sequence (P36888 27-993 D835Y): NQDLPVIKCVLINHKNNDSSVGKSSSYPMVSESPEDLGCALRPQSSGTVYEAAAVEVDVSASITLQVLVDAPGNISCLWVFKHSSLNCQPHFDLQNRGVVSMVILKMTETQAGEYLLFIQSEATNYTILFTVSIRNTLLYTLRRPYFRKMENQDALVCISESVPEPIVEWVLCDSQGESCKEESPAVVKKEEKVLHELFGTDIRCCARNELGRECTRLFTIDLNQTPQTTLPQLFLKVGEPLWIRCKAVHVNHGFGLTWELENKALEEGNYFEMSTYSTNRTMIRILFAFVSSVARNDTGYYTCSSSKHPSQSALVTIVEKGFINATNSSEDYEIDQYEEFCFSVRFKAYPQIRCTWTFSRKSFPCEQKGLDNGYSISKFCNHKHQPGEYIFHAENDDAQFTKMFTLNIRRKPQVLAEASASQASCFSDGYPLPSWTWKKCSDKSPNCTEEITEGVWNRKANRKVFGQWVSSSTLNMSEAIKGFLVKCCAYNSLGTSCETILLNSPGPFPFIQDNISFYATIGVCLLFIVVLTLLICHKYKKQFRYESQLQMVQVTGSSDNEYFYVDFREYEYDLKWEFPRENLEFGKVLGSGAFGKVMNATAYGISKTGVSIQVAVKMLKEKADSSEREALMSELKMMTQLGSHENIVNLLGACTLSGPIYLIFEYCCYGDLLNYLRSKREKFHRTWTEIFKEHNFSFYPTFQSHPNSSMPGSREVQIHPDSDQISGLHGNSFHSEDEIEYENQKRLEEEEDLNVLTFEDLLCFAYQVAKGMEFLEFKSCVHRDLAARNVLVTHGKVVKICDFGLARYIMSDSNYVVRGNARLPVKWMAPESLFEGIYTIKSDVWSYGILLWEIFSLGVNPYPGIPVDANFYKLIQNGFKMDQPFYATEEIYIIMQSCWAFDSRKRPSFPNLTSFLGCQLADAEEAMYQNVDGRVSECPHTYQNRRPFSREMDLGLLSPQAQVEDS
Nature of the test: FLT3-D835Y recombinant enzyme kinase assay (AlphaScreen). In kind it is biochemical. As to conditions: 8 pt, GMean. The essentials: as §1

T1 sequence (P10721 26-976): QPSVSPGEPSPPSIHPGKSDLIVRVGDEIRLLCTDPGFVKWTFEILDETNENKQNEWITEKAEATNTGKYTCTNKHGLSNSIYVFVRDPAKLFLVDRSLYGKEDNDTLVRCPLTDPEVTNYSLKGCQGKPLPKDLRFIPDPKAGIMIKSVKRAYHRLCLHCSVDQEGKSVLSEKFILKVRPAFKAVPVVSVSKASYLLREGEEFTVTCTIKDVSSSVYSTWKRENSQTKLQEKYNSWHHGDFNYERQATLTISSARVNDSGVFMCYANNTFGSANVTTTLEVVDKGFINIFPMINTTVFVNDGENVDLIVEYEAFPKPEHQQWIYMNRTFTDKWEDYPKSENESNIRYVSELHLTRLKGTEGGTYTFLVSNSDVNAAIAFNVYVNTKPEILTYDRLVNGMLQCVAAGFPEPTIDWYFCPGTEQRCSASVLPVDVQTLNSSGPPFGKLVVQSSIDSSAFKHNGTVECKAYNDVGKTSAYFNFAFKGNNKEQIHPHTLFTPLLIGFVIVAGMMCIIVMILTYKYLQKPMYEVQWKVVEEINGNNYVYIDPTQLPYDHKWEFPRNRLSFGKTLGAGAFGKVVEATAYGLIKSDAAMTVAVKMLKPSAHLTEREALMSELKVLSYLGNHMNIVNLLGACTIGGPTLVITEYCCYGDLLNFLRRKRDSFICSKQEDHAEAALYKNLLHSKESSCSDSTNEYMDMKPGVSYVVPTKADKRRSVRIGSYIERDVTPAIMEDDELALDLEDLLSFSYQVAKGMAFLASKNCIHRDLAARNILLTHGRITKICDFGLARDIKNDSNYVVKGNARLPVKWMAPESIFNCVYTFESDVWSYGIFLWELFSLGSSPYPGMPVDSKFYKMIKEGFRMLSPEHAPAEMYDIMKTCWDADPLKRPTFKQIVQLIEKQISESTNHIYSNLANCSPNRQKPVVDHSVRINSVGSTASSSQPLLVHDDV

Regarding `O=C(Cc1ccc(-c2cnc(Nc3cnn(C(F)F)c3)nc2)cc1)Nc1cc(C(F)(F)F)ccn1` [Compound P-0023, 2-[4-[2-[[1-(difluoromethyl)pyrazol-4-yl]amino]pyrimidin-5-yl]phenyl]-N-[4-(trifluoromethyl)-2-pyridyl]acetamide], the IC50 on c-KIT and on FLT3-D835Y was 0.0001 to 10 µM in each case.
On to `Cn1cc(Nc2ncc(-c3cc(F)c(CC(=O)Nc4cncc(C(F)(F)F)c4)cc3F)cn2)cn1` [Compound P-0207, 2-[2,5-difluoro-4-[2-[(1-methylpyrazol-4-yl)amino]pyrimidin-5-yl]phenyl]-N-[5-(trifluoromethyl)-3-pyridyl]acetamide], for which the IC50 on c-KIT and on FLT3-D835Y was 0.0001 to 10 µM each time.
Consider `COCCn1cc(Nc2ncc(-c3ccc(CC(=O)Nc4cncc(C(F)(F)F)c4)c(F)c3)cn2)cn1` [Compound P-0267, 2-[2-fluoro-4-[2-[[1-(2-methoxyethyl)pyrazol-4-yl]amino]pyrimidin-5-yl]phenyl]-N-[5-(trifluoromethyl)-3-pyridyl]acetamide], for which the IC50 on c-KIT and on FLT3-D835Y was 0.0001 to 10 µM in each case.
For the molecule `Cc1ncc(NC(=O)Cc2ccc(-c3cnc(Nc4cnn(C5CC5)c4)nc3)cc2)cc1C(F)(F)F` [Compound P-0232, 2-[4-[2-[(1-cyclopropylpyrazol-4-yl)amino]pyrimidin-5-yl]phenyl]-N-[6-methyl-5-(trifluoromethyl)-3-pyridyl]acetamide], the IC50 on c-KIT and on FLT3-D835Y was 0.0001 to 10 µM in each case.
With `Cn1cnc(Nc2ncc(-c3cc(F)c(CC(=O)Nc4cc(C(F)(F)F)ccn4)cc3F)cn2)c1` [Compound P-0020, 2-[2,5-difluoro-4-[2-[(1-methylimidazol-4-yl)amino]pyrimidin-5-yl]phenyl]-N-[4-(trifluoromethyl)-2-pyridyl]acetamide], the half-inhibitory concentration (IC50) on c-KIT and on FLT3-D835Y was 0.0001 to 10 µM in each case.
Take `CCn1cc(Nc2ncc(-c3ccc(CC(=O)Nc4cc(C(F)(F)F)ccn4)c(F)c3)cn2)cn1` [Compound P-0255, 2-[4-[2-[(1-ethylpyrazol-4-yl)amino]pyrimidin-5-yl]-2-fluoro-phenyl]-N-[4-(trifluoromethyl)-2-pyridyl]acetamide]: the concentration for half-maximal inhibition (IC50) at c-KIT and at FLT3-D835Y was 0.0001 to 10 µM throughout.
Take `COc1ncc(NC(=O)Cc2cc(F)c(-c3cnc(Nc4cnn(C)c4)nc3)cc2F)cc1C(F)(F)F` [Compound P-0208, 2-[2,5-difluoro-4-[2-[(1-methylpyrazol-4-yl)amino]pyrimidin-5-yl]phenyl]-N-[6-methoxy-5-(trifluoromethyl)-3-pyridyl]acetamide]: the IC50 at c-KIT and at FLT3-D835Y was 0.0001 to 10 µM throughout.
For the molecule `Cc1ncc(NC(=O)Cc2ccc(-c3cnc(Nc4cnn(C(F)F)c4)nc3)cc2)cc1C(F)(F)F` [Compound P-0210, 2-[4-[2-[[1-(difluoromethyl)pyrazol-4-yl]amino]pyrimidin-5-yl]phenyl]-N-[6-methyl-5-(trifluoromethyl)-3-pyridyl]acetamide], the IC50 on c-KIT and at FLT3-D835Y was 0.0001 to 10 µM throughout.
In the case of `CCn1cc(Nc2ncc(-c3ccc(CC(=O)Nc4ccc(C(F)(F)F)nc4)c(F)c3)cn2)cn1` [Compound P-0257, 2-[4-[2-[(1-ethylpyrazol-4-yl)amino]pyrimidin-5-yl]-2-fluoro-phenyl]-N-[6-(trifluoromethyl)-3-pyridyl]acetamide], the half-maximal inhibitory concentration (IC50) at c-KIT and on FLT3-D835Y was 0.0001 to 10 µM each time.
Take `CCOc1n[nH]c2ncc(-c3ccc(CC(=O)Nc4cnc(C)c(C(F)(F)F)c4)cc3)cc12` [Compound P-0217, 2-[4-(3-ethoxy-1H-pyrazolo[3,4-b]pyridin-5-yl)phenyl]-N-[6-methyl-5-(trifluoromethyl)-3-pyridyl]acetamide]: the half-maximal inhibitory concentration (IC50) at c-KIT and on FLT3-D835Y was 0.0001 to 10 µM each time.
Consider `CCn1cc(Nc2ncc(-c3cc(F)c(CC(=O)Nc4cnc(C)c(C(F)(F)F)c4)cc3F)cn2)cn1` [Compound P-0249, 2-[4-[2-[(1-ethylpyrazol-4-yl)amino]pyrimidin-5-yl]-2,5-difluoro-phenyl]-N-[6-methyl-5-(trifluoromethyl)-3-pyridyl]acetamide], for which the IC50 at c-KIT and on FLT3-D835Y was 0.0001 to 10 µM each time.
Take `CCn1cc(Nc2ncc(-c3ccc(CC(=O)Nc4cnc(OC)c(C(F)(F)F)c4)c(F)c3)cn2)cn1` [Compound P-0259, 2-[4-[2-[(1-ethylpyrazol-4-yl)amino]pyrimidin-5-yl]-2-fluoro-phenyl]-N-[6-methoxy-5-(trifluoromethyl)-3-pyridyl]acetamide]: the IC50 at c-KIT and on FLT3-D835Y was 0.0001 to 10 µM each time.
Regarding `COCCn1cc(Nc2ncc(-c3ccc(CC(=O)Nc4ccc(C(F)(F)F)cn4)cc3)cn2)cn1` [Compound P-0274, 2-[4-[2-[[1-(2-methoxyethyl)pyrazol-4-yl]amino]pyrimidin-5-yl]phenyl]-N-[5-(trifluoromethyl)-2-pyridyl]acetamide], the concentration for half-maximal inhibition (IC50) on c-KIT and on FLT3-D835Y was 0.0001 to 10 µM throughout.
`COc1ncc(NC(=O)Cc2ccc(-c3cnc4[nH]nc(C5CC5)c4c3)cc2F)cc1C(F)(F)F` [Compound P-0262, 2-[4-(3-cyclopropyl-1H-pyrazolo[3,4-b]pyridin-5-yl)-2-fluoro-phenyl]-N-[6-methoxy-5-(trifluoromethyl)-3-pyridyl]acetamide]: the half-inhibitory concentration (IC50) on c-KIT and on FLT3-D835Y was 0.0001 to 10 µM each time.
As for `COCCn1cc(Nc2ncc(-c3ccc(CC(=O)Nc4cnc(Cl)c(C(F)(F)F)c4)c(F)c3)cn2)cn1` [Compound P-0266, N-[6-chloro-5-(trifluoromethyl)-3-pyridyl]-2-[2-fluoro-4-[2-[[1-(2-methoxyethyl)pyrazol-4-yl]amino]pyrimidin-5-yl]phenyl]acetamide], the IC50 on c-KIT and on FLT3-D835Y was 0.0001 to 10 µM each time.
Take `O=C(Cc1ccc(-c2cnc(Nc3cnn(C4CC4)c3)nc2)cc1)Nc1ccc(C(F)(F)F)cn1` [Compound P-0236, 2-[4-[2-[(1-cyclopropylpyrazol-4-yl)amino]pyrimidin-5-yl]phenyl]-N-[5-(trifluoromethyl)-2-pyridyl]acetamide]: the concentration for half-maximal inhibition (IC50) on c-KIT and on FLT3-D835Y was 0.0001 to 10 µM throughout.
Take `Cc1ncc(NC(=O)Cc2ccc(-c3cnc(Nc4cnn(C)c4C)nc3)cc2)cc1C(F)(F)F` [Compound P-0229, 2-[4-[2-[(1,5-dimethylpyrazol-4-yl)amino]pyrimidin-5-yl]phenyl]-N-[6-methyl-5-(trifluoromethyl)-3-pyridyl]acetamide]: the half-maximal inhibitory concentration (IC50) at c-KIT and at FLT3-D835Y was 0.0001 to 10 µM in each case.
Turning to `O=C(Cc1ccc(-c2cnc(Nc3cnn(C4CC4)c3)nc2)cc1)Nc1cncc(C(F)(F)F)c1` [Compound P-0231, 2-[4-[2-[(1-cyclopropylpyrazol-4-yl)amino]pyrimidin-5-yl]phenyl]-N-[5-(trifluoromethyl)-3-pyridyl]acetamide], the IC50 on c-KIT and on FLT3-D835Y was 0.0001 to 10 µM throughout.
`COCCn1cc(Nc2ncc(-c3ccc(CC(=O)Nc4cnc(OC)c(C(F)(F)F)c4)c(F)c3)cn2)cn1` [Compound P-0265, 2-[2-fluoro-4-[2-[[1-(2-methoxyethyl)pyrazol-4-yl]amino]pyrimidin-5-yl]phenyl]-N-[6-methoxy-5-(trifluoromethyl)-3-pyridyl]acetamide]: the 50% inhibitory concentration (IC50) on c-KIT and at FLT3-D835Y was 0.0001 to 10 µM each time.

By IC50 is commonly meant the concentration at which inhibition is half-maximal.
